The target in experiment [1] is Mitogen-activated protein kinase 14 (Homo sapiens, UniProt Q16539). Nature of the experiment: Kinase Inhibition Assay. The conditions noted are these: pH 7.5; 37 °C.
Experiment [2] concerns the target Mitogen-activated protein kinase 1 (Rattus norvegicus, UniProt P63086). Nature of the experiment: Kinase Inhibition Assay. The conditions noted are these: pH 7.5; 37 °C.

Broadly, the IC50 is the concentration needed to halve the response being measured. A higher IC50 goes with a need for much substance.

Mitogen-activated protein kinase 1, sequence (P63086 whole entry): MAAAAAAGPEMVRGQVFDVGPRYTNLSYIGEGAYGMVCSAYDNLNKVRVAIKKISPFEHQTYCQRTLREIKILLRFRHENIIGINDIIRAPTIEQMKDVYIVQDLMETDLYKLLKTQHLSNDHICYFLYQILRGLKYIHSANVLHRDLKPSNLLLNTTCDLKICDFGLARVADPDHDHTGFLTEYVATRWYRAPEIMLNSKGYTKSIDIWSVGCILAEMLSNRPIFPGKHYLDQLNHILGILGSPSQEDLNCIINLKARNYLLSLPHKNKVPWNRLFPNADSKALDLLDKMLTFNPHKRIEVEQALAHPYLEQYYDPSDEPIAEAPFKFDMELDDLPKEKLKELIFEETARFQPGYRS
Mitogen-activated protein kinase 14, sequence (Q16539 whole entry): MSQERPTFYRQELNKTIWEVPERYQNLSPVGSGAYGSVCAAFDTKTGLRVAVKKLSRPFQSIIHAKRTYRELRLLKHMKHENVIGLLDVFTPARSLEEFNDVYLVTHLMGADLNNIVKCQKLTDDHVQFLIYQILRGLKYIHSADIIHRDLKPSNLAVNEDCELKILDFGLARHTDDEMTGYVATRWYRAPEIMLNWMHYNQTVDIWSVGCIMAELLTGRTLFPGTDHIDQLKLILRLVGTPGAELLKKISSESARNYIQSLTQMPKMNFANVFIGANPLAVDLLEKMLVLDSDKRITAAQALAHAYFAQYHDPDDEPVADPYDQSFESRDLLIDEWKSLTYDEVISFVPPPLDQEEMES

On to `Cn1cnc2c(NCc3ccccc3)nc(NCCO)nc21` [2,6,9-Trisubstituted purine deriv. 26], for which the IC50 was more than 100 µM in experiment [1] and 27 µM in experiment [2].
`C[S+]([O-])c1ccc(-c2nc(-c3ccncc3)c(-c3ccc(F)cc3)[nH]2)cc1` (stereo not drawn) [4-{4-(4-fluorophenyl)-2-[4-(methylsulfinyl)phenyl]-1H-imidazol-5-yl}pyridine] gave an IC50 in experiment [2] of more than 1000 µM.

The record behind these values is BindingDB's records for doi:10.1016/s0969-2126(98)00113-0 (University of Texas At Dallas, 1998).
